Reference: publication PMC8002823, “Synthesis and Structure–Activity Relationships of Aristoyagonine Derivatives as Brd4 Bromodomain Inhibitors with X-ray Co-Crystal Research” (Molecules, 2021)
Several values for one entry are separate records, joined by “and”; a condition that tells them apart may be missing. Equal entries are not always repeated.

Key:
Ty82 cells = assay: Cell cytotoxic assay in Ty82 cells; format: cell-based; settings: Homo sapiens; for CC50: Ty82 cell cytotoxic activity, 72 h; for IC50: TY82, cell cytotoxic activity (Table 4 head prints IC50)
Experimental: For the viability experiments, Ty82 cells were seeded in 96-well plates at 30% confluency and exposed to chemicals the next day. After 72 h, WST-1 reagent was added, and absorbance at 450 nm was measured by using a Spectramax spectrophotometer (Molecular Devices, San Jose, CA, USA) in accordance with the manufacturer’s instructions. The CC50 values were calculated by using GraphPad Prism version 5 for Windows. The curves were fitted using a nonlinear regression model with a log (inhibitor) versus response formula.

Brd4 bromodomain = target: T1, Brd4 bromodomain (Homo sapiens, UniProt O60885); assay: Alpha-screen enzyme assay (bromodomain binding to acetylated histone peptide); settings: for IC50 / inhibitory activity against Brd4 bromodomain (in words): alpha-screen assay; for IC50: inhibition of bromodomain binding activity, calculated with Prism6;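 for all read-outs here: AlphaScreen proximity readout pairing streptavidin donor beads with anti-GST acceptor beads, with hits checked against bead interference using a TruHit control kit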
T1 construct: glutathione-S-transferase (GST) and His-tagged bromodomain; made in house
Experimental: Bromodomain was prepared as previously described. […] Streptavidin-coated donor beads and anti-GST alpha-screen acceptor beads were added under low-light condition. […] The alpha-screen results were confirmed by using alpha-screen TruHit kits (PerkinElmer, USA).

For CCOc1ccc2c3c1Oc1ccc(O)cc1C=C3N(C)C2=O [Compound 8bl, 5-Ethoxy-9-hydroxy-1-methylbenzo[6,7]oxepino[4,3,2-cd]isoindol-2(1H)-one], the CC50 (Ty82 cells) was 0.31 µM and the IC50 (Brd4 bromodomain) was 1.12 µM.

For CCOc1ccc2c3c1Oc1ccc(OCCN(CC)CC)cc1C=C3N(C)C2=O [Compound 8bm, 9-(2-(Diethylamino)ethoxy)-5-ethoxy-1-methylbenzo[6,7]oxepino[4,3,2-cd]isoindol-2(1H)-one], the melting point was 169 to 171 °C, the CC50 (Ty82 cells) was 0.66 µM and the IC50 (Brd4 bromodomain) was 0.91 µM.

CCN(CC)CCOc1ccc2c(c1)C=C1c3c(ccc(OC)c3O2)C(=O)N1C [Compound 8be, 9-(2-(Diethylamino)ethoxy)-5-methoxy-1-methylbenzo[6,7]oxepino[4,3,2-cd]isoindol-2(1H)-one] gave a melting point of 174 to 176 °C, a CC50 (Ty82 cells) of 0.56 µM and an IC50 (Brd4 bromodomain) of 0.86 µM.

With CCCc1ccc2c3c1Oc1ccc(C(F)(F)F)cc1C=C3N(C)C2=O [Compound 8db, 1-Methyl-5-propyl-9-(trifluoromethyl)benzo[6,7]oxepino[4,3,2-cd]isoindol-2(1H)-one] the melting point was 239 to 241 °C, the IC50 (Ty82 cells) was greater than 20 µM and the IC50 (Brd4 bromodomain) was greater than 32 µM.

Compound CCCc1ccc2c3c1Oc1cc4c(cc1C=C3N(C)C2=O)OCO4 [Compound 8de, 1-methyl-5-propyl-[1,3]dioxolo[4”,5”.4′,5′]benzo[1′,2′:6,7]oxepino[4,3,2-cd]isoindol-2(1H)-one] has a melting point of 257 to 259 °C, an IC50 (Ty82 cells) of 4.5 µM and an IC50 (Brd4 bromodomain) of 2.69 µM.

With CCOc1c(OC)ccc2c1Oc1c(OC)ccc3c1C(=C2)N(C)C3=O [Compound 8ab, 7-Ethoxy-5,8-dimethoxy-1-methylbenzo[6,7]oxepino[4,3,2-cd]isoindol-2(1H)-one] the “increase in activity compared with 8ae” value (Brd4 bromodomain; Brd4 IC50 ratio) was “four-fold increased activity” and the IC50 (Brd4 bromodomain) was 0.86 µM.

With CCCc1ccc2c3c1Oc1ccc(OCC(C)C)cc1C=C3N(C)C2=O [Compound 8da, 9-Isobutoxy-1-methyl-5-propylbenzo[6,7]oxepino[4,3,2-cd]isoindol-2(1H)-one] the melting point was 196 to 199 °C, the IC50 (Ty82 cells) was 10 µM and the IC50 (Brd4 bromodomain) was 6.64 µM.

CCCc1ccc2c3c1Oc1ccc(OCc4ccccc4)cc1C=C3N(C)C2=O [Compound 8dd, 9-(Benzyloxy)-1-methyl-5-propylbenzo[6,7]oxepino[4,3,2-cd]isoindol-2(1H)-one] showed a melting point of 203 to 205 °C, an IC50 (Ty82 cells) of 10 µM and an IC50 (Brd4 bromodomain) of 9 µM.

In the case of COc1ccc2c3c1Oc1ccc(OCc4ccccc4)cc1C=C3N(C)C2=O [Compound 8bg, 9-Benzyloxy-5-methoxy-1-methylbenzo[6,7]oxepino[4,3,2-cd]isoindol-2(1H)-one], the melting point is reported as 187 to 189 °C, the “inhibitory activity against Brd4 bromodomain (in words)” value (from here on “inhibitory activity”) (Brd4 bromodomain) is reported as “did not” and the IC50 (Brd4 bromodomain) is reported as greater than 32 µM.

For CCOc1ccc2c3c1Oc1c(ccc(OC)c1OCCc1ccc(OC)cc1)C=C3N(C)C2=O [Compound 8af, 5-Ethoxy-8-methoxy-7-(4-methoxyphenethoxy)-1-methylbenzo[6,7]oxepino[4,3,2-cd]isoindol-2(1H)-one], the melting point was 189 to 191 °C, the CC50 (Ty82 cells) was greater than 4 µM and the “inhibitory activity” value (Brd4 bromodomain) was “weak inhibitory effect”. The IC50 (Brd4 bromodomain) was 5.33 µM.

With COc1ccc2c3c1Oc1cc4c(cc1C=C3N(C)C2=O)OCO4 [Compound 8bh, 5-Methoxy-1-methyl-[1,3]dioxolo[4”,5”.4′,5′]benzo[1′,2′:6,7]oxepino[4,3,2-cd]isoindol-2(1H)-one] the melting point was 237 to 239 °C, the CC50 (Ty82 cells) was 2.16 µM and the “inhibitory activity” value (Brd4 bromodomain) was “modest inhibition”. It also gave an IC50 (Brd4 bromodomain) of 11.1 µM.

Cc1ccc2c3c1Oc1ccc(C(F)(F)F)cc1C=C3N(C)C2=O [Compound 8df, 1,5-Dimethyl-9-(trifluoromethyl)benzo[6,7]oxepino[4,3,2-cd]isoindol-2(1H)-one] showed a melting point of 227 to 229 °C and an IC50 (Brd4 bromodomain) greater than 32 µM.

In the case of CCOc1ccc2c3c1Oc1cc4c(cc1C=C3N(C)C2=O)OCO4 [Compound 8bp, 5-Ethoxy-1-methyl-[1,3]dioxolo[4”,5”.4′,5′]benzo[1′,2′:6,7]oxepino[4,3,2-cd]isoindol-2(1H)-one], the melting point is reported as 207 to 209 °C, the CC50 (Ty82 cells) is reported as 3.81 µM and the “inhibitory activity” value (Brd4 bromodomain) is reported as “modest inhibition”. For the same compound, the IC50 (Brd4 bromodomain) was 2.89 µM.

Compound COc1ccc2c3c1Oc1ccc(O)cc1C=C3N(C)C2=O [Compound 8bd, 9-Hydroxy-5-methoxy-1-methylbenzo[6,7]oxepino[4,3,2-cd]isoindol-2(1H)-one] has a melting point of 177 to 179 °C, a CC50 (Ty82 cells) of 0.54 µM and an IC50 (Brd4 bromodomain) of 0.41 µM.

CCN(CC)c1ccc2c3c1Oc1cc4c(cc1C=C3N(C)C2=O)OCO4 [Compound 8ce, 5-(Diethylamino)-1-methyl-[1,3]dioxolo[4”,5”.4′,5′]benzo[1′,2′:6,7]oxepino[4,3,2-cd]isoindol-2(1H)-one] gave a melting point of 199 to 201 °C, a CC50 (Ty82 cells) of 10 µM and an IC50 (Brd4 bromodomain) of 7.29 µM.

In the case of CCN(CC)c1ccc2c3c1Oc1ccc(O)cc1CC3N(C)C2=O (centres unmarked) [Compound 8cc, 5-(Diethylamino)-9-hydroxy-1-methyl-11,11a-dihydrobenzo[6,7]oxepino[4,3,2-cd]isoindol-2(1H)-one], the melting point is reported as 165 to 167 °C, the CC50 (Ty82 cells) is reported as 10 µM and the IC50 (Brd4 bromodomain) is reported as 5.86 µM.

For CCOc1ccc2c3c1Oc1ccc(C(F)(F)F)cc1C=C3N(C)C2=O [Compound 8bj, 5-Ethoxy-1-methyl-9-(trifluoromethyl)benzo[6,7]oxepino[4,3,2-cd]isoindol-2(1H)-one], the melting point was 230 to 232 °C, the CC50 (Ty82 cells) was greater than 20 µM and the IC50 (Brd4 bromodomain) was greater than 9 µM.

For CCN(CC)c1ccc2c3c1Oc1ccc(OCc4ccccc4)cc1C=C3N(C)C2=O [Compound 8cd, 9-(Benzyloxy)-5-(diethylamino)-1-methylbenzo[6,7]oxepino[4,3,2-cd]isoindol-2(1H)-one], the melting point was 185 to 188 °C, the CC50 (Ty82 cells) was greater than 20 µM and the IC50 (Brd4 bromodomain) was greater than 32 µM.

In the case of CCCc1ccc2c3c1Oc1ccc(OCc4ccccn4)cc1C=C3N(C)C2=O [Compound 8dc, 1-Methyl-5-propyl-9-(pyridine-2-ylmethoxy)benzo[6,7]oxepino[4,3,2-cd]isoindol-2(1H)-one], the IC50 (Ty82 cells) is reported as 1.77 µM and the IC50 (Brd4 bromodomain) is reported as 1.37 µM.

For COc1ccc(CCOc2c(OC)ccc3c2Oc2c(OC)ccc4c2C(=C3)N(C)C4=O)cc1 [Compound 8ac, 5,8-Dimethoxy-7-(4-methoxyphenethoxy)-1-methylbenzo[6,7]oxepino[4,3,2-cd]isoindol-2(1H)-one], the CC50 (Ty82 cells) was greater than 20 µM and the IC50 (Brd4 bromodomain) was 3.74 µM.

With CCN(CC)c1ccc2c3c1Oc1ccc(O)cc1C=C3N(C)C2=O [Compound 8cb, 5-(Diethylamino)-9-hydroxy-1-methylbenzo[6,7]oxepino[4,3,2-cd]isoindol-2(1H)-one] the melting point was 181 to 183 °C, the CC50 (Ty82 cells) was 8 µM and the “inhibitory activity” value (Brd4 bromodomain) was “weaker inhibitory effects than 8bd and 8bl”. It also gave an IC50 (Brd4 bromodomain) of 4.89 µM.

With COc1cccc2c1Oc1c(OC)ccc3c1C(=C2)N(C)C3=O [Compound 8aa, 5,7-Dimethoxy-1-methylbenzo[6,7]oxepino[4,3,2-cd]isoindol-2(1H)-one] the melting point was 208 to 210 °C and the IC50 (Brd4 bromodomain) was 0.84 µM.

Compound COc1ccc2c3c1Oc1ccc(OCc4ccccn4)cc1C=C3N(C)C2=O [Compound 8bf, 5-Methoxy-1-methyl-9-(pyridine-2-ylmethoxy)benzo[6,7]oxepino[4,3,2-cd]isoindol-2(1H)-one] has a melting point of 176 to 178 °C, a CC50 (Ty82 cells) of 0.23 µM and an IC50 (Brd4 bromodomain) of 0.91 µM.

With COc1ccc2c3c1Oc1ccc(C(F)(F)F)cc1C=C3N(C)C2=O [Compound 8bb, 5-Methoxy-1-methyl-9-(trifluoromethyl)benzo[6,7]oxepino[4,3,2-cd]isoindol-2(1H)-one] the CC50 (Ty82 cells) was greater than 20 µM, the “inhibitory activity” value (Brd4 bromodomain) was “no inhibitory activity” and the IC50 (Brd4 bromodomain) was greater than 32 µM.

In the case of CCOc1ccc2c3c1Oc1ccc(OCC(C)C)cc1C=C3N(C)C2=O [Compound 8bi, 9-Isobutoxy-5-ethoxy-1-methylbenzo[6,7]oxepino[4,3,2-cd]isoindol-2(1H)-one], the melting point is reported as 178 to 180 °C and the IC50 (Brd4 bromodomain) is reported as greater than 10 µM.

With CCOc1ccc2c3c1Oc1c(ccc(OC)c1OC)C=C3N(C)C2=O [Compound 8ae, 5-Ethoxy-7,8-dimethoxy-1-methylbenzo[6,7]oxepino[4,3,2-cd]isoindol-2(1H)-one] the melting point was 219 to 220 °C, the “inhibitory activity” value (Brd4 bromodomain) was “slightly increased the inhibitory activity compared with 8af” and the IC50 (Brd4 bromodomain) was 4.16 µM.

Work on COc1ccc2c3c1Oc1ccc(OCC(C)C)cc1C=C3N(C)C2=O [Compound 8ba, 9-Isobutoxy-5-methoxy-1-methylbenzo[6,7]oxepino[4,3,2-cd]isoindol-2(1H)-one] yielded an IC50 (Brd4 bromodomain) of 16.7 µM.

With CCOc1ccc2c3c1Oc1ccc(OCc4ccccc4)cc1C=C3N(C)C2=O [Compound 8bo] the melting point was 198 to 200 °C.

CCOc1ccc2c3c1Oc1ccc(OCc4ccccn4)cc1C=C3N(C)C2=O [Compound 8bn, 5-Ethoxy-1-methyl-9-(pyridine-2-ylmethoxy)benzo[6,7]oxepino[4,3,2-cd]isoindol-2(1H)-one] gave a melting point of 188 to 190 °C, a CC50 (Ty82 cells) of 0.36 µM and an IC50 (Brd4 bromodomain) of 0.68 µM.

With COc1ccc2c(c1OCCCOc1ccccc1)Oc1c(OC)ccc3c1C(=C2)N(C)C3=O [Compound 8ad, 5,8-Dimethoxy-1-methyl-7-(3-phenoxypropoxy)benzo[6,7]oxepino[4,3,2-cd]isoindol-2(1H)-one] the melting point was 189 to 191 °C, the CC50 (Ty82 cells) was greater than 4 µM and the IC50 (Brd4 bromodomain) was 7.08 µM and 7.07 µM.
